# Experimental data taken from patent US20240374552A1, “Compositions and Methods for Preventing or Reducing the Risk of Metabolic Syndrome” (priority 2021, published 2024).
# System: High-Fat Diet (HFD) induced obesity model
# Assay: Effectiveness on metabolic syndrome risk factors, high-fat diet-induced obesity model
# Details: for Body mass index / Cholesterol (%) / Fat free mass / Fat mass / Food consumption (%) / Glucose (%) / Triglycerides (%) / Weight loss (%): reduction, negative = increase
# [1] = ED4: HFD, 0.001 mg/Kg daily 2 weeks
# [2] = ED5: Normal diet, 0.001 mg/Kg daily 2 weeks
# [3] = ED6: HFD, 0.0175 mg/Kg daily 2 weeks
# [4] = ED7: Normal diet, 0.0175 mg/Kg daily 2 weeks
# [5] = ED8: HFD, 0.175 mg/Kg daily 2 weeks
# [6] = ED9: Normal diet, 0.175 mg/Kg daily 2 weeks
# [7] = ED10: HFD, 0.18 mg/Kg daily 2 weeks
# [8] = ED11: Normal diet, 0.18 mg/Kg daily 2 weeks
# [9] = ED12: HFD, 0.1999 mg/Kg daily 2 weeks
# [10] = ED13: Normal diet, 0.1999 mg/Kg daily 2 weeks
# [11] = EH4: HFD, 0.20 mg/Kg daily 2 weeks, purity min 95%
# [12] = EH5: Normal diet, 0.20 mg/Kg daily 2 weeks, purity min 95%
# [13] = EH6: HFD, 0.76 mg/Kg daily 2 weeks, purity min 95%
# [14] = EH7: Normal diet, 0.76 mg/Kg daily 2 weeks, purity min 95%
# [15] = EH8: HFD, 1.75 mg/Kg daily 2 weeks, purity min 95%
# [16] = EH9: Normal diet, 1.75 mg/Kg daily 2 weeks, purity min 95%
# [17] = EH10: HFD, 5.50 mg/Kg daily 2 weeks, purity min 95%
# [18] = EH11: Normal diet, 5.50 mg/Kg daily 2 weeks, purity min 95%
# [19] = EH12: HFD, 25.00 mg/Kg daily 2 weeks, purity min 95%
# [20] = EH13: Normal diet, 25.00 mg/Kg daily 2 weeks, purity min 95%
# [21] = EH14: HFD, 55.50 mg/Kg daily 2 weeks, purity min 95%
# [22] = EH15: Normal diet, 55.50 mg/Kg daily 2 weeks, purity min 95%
# [23] = doses 0.001 mg/Kg to about 0.1999 mg/Kg
# [24] = doses 0.20 mg/Kg to about 1.75 mg/Kg
# Excerpt: Animal studies in high-fat diet-induced obesity model in a total 75 male C57BL/6/CIEABR mice 6 to 7 weeks of age.
# The test system is based on the High-Fat Diet (HFD) induced obesity model.
# During the quarantine period (10 days), all animals were given rodent food “PicoLab Mouse Diet 5058” food, later, they were given high fat food “Tso's High Fat Diet With Butter Fat” or “PicoLab Mouse Diet 5058” food, according to the assignment of the type of diet and treatment that each animal should consume (See table 3 and table 4).
# At the end of the induction period, the administration of the different treatments began. The test product, vehicle, and controls were administered daily for two weeks. Administration was orally using curved stainless steel gastric tubes (18 G×1.5) previously sanitized; administration was performed at 11:00±1 h.
# For each treatment, different parameters were quantified to determine their decrease regarding the treatment applied to each group: weight loss (%), feed consumption (%), fat free mass (g), fat mass (g), body mass index, glucose (%), cholesterol (%) and triglycerides (%).
smiles,measurement,setting,value
"CC(C)(C)c1cc(C=C(C#N)C#N)cc(C(C)(C)C)c1O [tyrphostin AG17, Tyrphostin AG17]",Body mass index,[1],1.04
same,Cholesterol (%),[1],−0.03%
same,Fat free mass,[1],-2.69 g
same,Fat mass,[1],-0.54 g
same,Food consumption (%),[1],−4.21%
same,Glucose (%),[1],0.75%
same,Triglycerides (%),[1],4.35%
same,Weight loss (%),[1],3.17%
same,Body mass index,[2],1.69
same,Cholesterol (%),[2],0.10%
same,Fat free mass,[2],-4.02 g
same,Fat mass,[2],1.28 g
same,Food consumption (%),[2],1.05%
same,Glucose (%),[2],1.33%
same,Triglycerides (%),[2],7.83%
same,Weight loss (%),[2],4.01%
same,Body mass index,[3],2.03
same,Cholesterol (%),[3],0.04%
same,Fat free mass,[3],1.22 g
same,Fat mass,[3],-0.31 g
same,Food consumption (%),[3],13.04%
same,Glucose (%),[3],0.92%
same,Triglycerides (%),[3],17.39%
same,Weight loss (%),[3],6.19%
same,Body mass index,[4],2.73
same,Cholesterol (%),[4],0.44%
same,Fat free mass,[4],3.21 g
same,Fat mass,[4],2.59 g
same,Food consumption (%),[4],17.39%
same,Glucose (%),[4],1.24%
same,Triglycerides (%),[4],20.00%
same,Weight loss (%),[4],8.40%
same,Body mass index,[5],4.41
same,Cholesterol (%),[5],0.65%
same,Fat free mass,[5],2.34 g
same,Fat mass,[5],1.28 g
same,Food consumption (%),[5],25.00%
same,Glucose (%),[5],1.36%
same,Triglycerides (%),[5],24.35%
same,Weight loss (%),[5],17.16%
same,Body mass index,[6],4.30
same,Cholesterol (%),[6],1.30%
same,Fat free mass,[6],3.98 g
same,Fat mass,[6],3.56 g
same,Food consumption (%),[6],20.83%
same,Glucose (%),[6],1.93%
same,Triglycerides (%),[6],25.22%
same,Weight loss (%),[6],22.13%
same,Body mass index,[7],3.30
same,Cholesterol (%),[7],1.10%
same,Fat free mass,[7],3.32 g
same,Fat mass,[7],-0.10 g
same,Food consumption (%),[7],21.74%
same,Glucose (%),[7],1.49%
same,Triglycerides (%),[7],32.17%
same,Weight loss (%),[7],16.56%
same,Body mass index,[8],4.22
same,Cholesterol (%),[8],1.27%
same,Fat free mass,[8],5.11 g
same,Fat mass,[8],4.92 g
same,Food consumption (%),[8],22.92%
same,Glucose (%),[8],2.31%
same,Triglycerides (%),[8],29.57%
same,Weight loss (%),[8],20.88%
same,Body mass index,[9],3.35
same,Cholesterol (%),[9],0.94%
same,Fat free mass,[9],3.41 g
same,Fat mass,[9],0.36 g
same,Food consumption (%),[9],22.27%
same,Glucose (%),[9],1.40%
same,Triglycerides (%),[9],30.54%
same,Weight loss (%),[9],16.24%
same,Body mass index,[10],3.91
same,Cholesterol (%),[10],2.44%
same,Fat free mass,[10],5.39 g
same,Fat mass,[10],6.02 g
same,Food consumption (%),[10],23.11%
same,Glucose (%),[10],2.11%
same,Triglycerides (%),[10],30.43%
same,Weight loss (%),[10],18.21%
same,Body mass index,[11],3.34
same,Cholesterol (%),[11],1.13%
same,Fat free mass,[11],3.44 g
same,Fat mass,[11],0.39 g
same,Food consumption (%),[11],18.18%
same,Glucose (%),[11],1.43%
same,Triglycerides (%),[11],31.02%
same,Weight loss (%),[11],20.88%
same,Body mass index,[12],4.05
same,Cholesterol (%),[12],2.48%
same,Fat free mass,[12],4.92 g
same,Fat mass,[12],5.99 g
same,Food consumption (%),[12],22.07%
same,Glucose (%),[12],2.15%
same,Triglycerides (%),[12],30.75%
same,Weight loss (%),[12],20.97%
same,Body mass index,[13],2.23
same,Cholesterol (%),[13],1.49%
same,Fat free mass,[13],2.39 g
same,Fat mass,[13],1.21 g
same,Food consumption (%),[13],23.81%
same,Glucose (%),[13],2.05%
same,Triglycerides (%),[13],33.12%
same,Weight loss (%),[13],14.92%
same,Body mass index,[14],3.43
same,Cholesterol (%),[14],3.38%
same,Fat free mass,[14],3.94 g
same,Fat mass,[14],7.52 g
same,Food consumption (%),[14],30.10%
same,Glucose (%),[14],2.04%
same,Triglycerides (%),[14],31.74%
same,Weight loss (%),[14],17.21%
same,Body mass index,[15],2.50
same,Cholesterol (%),[15],2.02%
same,Fat free mass,[15],-0.12 g
same,Fat mass,[15],1.05 g
same,Food consumption (%),[15],33.11%
same,Glucose (%),[15],2.19%
same,Triglycerides (%),[15],33.45%
same,Weight loss (%),[15],18.14%
same,Body mass index,[16],3.40
same,Cholesterol (%),[16],3.43%
same,Fat free mass,[16],1.04 g
same,Fat mass,[16],6.98 g
same,Food consumption (%),[16],35.18%
same,Glucose (%),[16],2.43%
same,Triglycerides (%),[16],32.42%
same,Weight loss (%),[16],13.88%
same,Body mass index,[17],3.30
same,Cholesterol (%),[17],2.36%
same,Fat free mass,[17],-0.04 g
same,Fat mass,[17],1.28 g
same,Food consumption (%),[17],38.09%
same,Glucose (%),[17],3.11%
same,Triglycerides (%),[17],34.17%
same,Weight loss (%),[17],7.83%
same,Body mass index,[18],4.22
same,Cholesterol (%),[18],3.44%
same,Fat free mass,[18],0.42 g
same,Fat mass,[18],5.41 g
same,Food consumption (%),[18],47.82%
same,Glucose (%),[18],2.03%
same,Triglycerides (%),[18],32.56%
same,Weight loss (%),[18],8.87%
same,Body mass index,[19],3.35
same,Cholesterol (%),[19],2.49%
same,Fat free mass,[19],-0.13 g
same,Fat mass,[19],1.20 g
same,Food consumption (%),[19],37.27%
same,Glucose (%),[19],4.20%
same,Triglycerides (%),[19],37.21%
same,Weight loss (%),[19],9.27%
same,Body mass index,[20],3.91
same,Cholesterol (%),[20],3.45%
same,Fat free mass,[20],-0.10 g
same,Fat mass,[20],5.58 g
same,Food consumption (%),[20],40.91%
same,Glucose (%),[20],2.10%
same,Triglycerides (%),[20],32.45%
same,Weight loss (%),[20],7.30%
same,Body mass index,[21],2.54
same,Cholesterol (%),[21],2.33%
same,Fat free mass,[21],-0.12 g
same,Fat mass,[21],1.06 g
same,Food consumption (%),[21],33.12%
same,Glucose (%),[21],4.38%
same,Triglycerides (%),[21],37.84%
same,Weight loss (%),[21],3.49%
same,Body mass index,[22],2.99
same,Cholesterol (%),[22],3.58%
same,Fat free mass,[22],-0.09 g
same,Fat mass,[22],5.01 g
same,Food consumption (%),[22],41.37%
same,Glucose (%),[22],1.91%
same,Triglycerides (%),[22],33.32%
same,Weight loss (%),[22],4.44%
same,Concentration of triglycerides,[23],considerable decrease
same,Levels of HDL and glucose,[23],maintaining the levels of HDL and glucose
same,Liver damage or toxic effects,[23],low presence of liver damage or toxic effects
same,Weight,[23],considerable decrease
same,Concentration of triglycerides,[24],decrease
same,Glucose levels,[24],maintained
same,HDL levels,[24],reduced
same,Weight,[24],decrease
same,Effect on the liver and toxic effects,"doses 0.20 mg/Kg to about 1.75 mg/Kg, high purity tyrphostin",reduced the effect on the hepatic liver as well as the toxic effects
